Data as given in US20200031778A1, “NOVEL 5-SUBSTITUTED IMIDAZOLYLMETHYL DERIVATIVES” (Bayer CropScience Aktiengesellschaft, priority 2016, published 2020).

Assay: Log P by HPLC on reversed phase columns (EEC directive 79/831 Annex V.A8; methods [a], [b], [c])
Type: physicochemical
Conditions: not given
Procedure: Measurement of Log P values was performed according to EEC directive 79/831 Annex V.A8 by HPLC (High Performance Liquid Chromatography) on reversed phase columns with the following methods: • ^[a] Log P value is determined by measurement of LC-UV, in an acidic range, with 0.1% formic acid in water and acetonitrile as eluent (linear gradient from 10% acetonitrile to 95% acetonitrile). • ^[b] Log P value is determined by measurement of LC-UV, in a neutral range, with 0.001 molar ammonium acetate solution in water and acetonitrile as eluent (linear gradient from 10% acetonitrile to 95% acetonitrile). • ^[c] Log P value is determined by measurement of LC-UV, in an acidic range, with 0.1% phosphoric acid and acetonitrile as eluent (linear gradient from 10% acetonitrile to 95% acetonitrile).
If more than one Log P value is available within the same method, all the values are given and separated by “+”.
Calibration was done with straight-chain alkan2-ones (with 3 to 16 carbon atoms) with known Log P values (measurement of Log P values using retention times with linear interpolation between successive alkanones). Lambda-max-values were determined using UV-spectra from 200 nm to 400 nm and the peak values of the chromatographic signals.

| Structure (SMILES) | LogP |
| --- | --- |
| N#Cc1cncn1CC(O)(CC1CCCCC1)c1ccc(F)cc1F (stereo not drawn) [I-466] | 3.44^[a] |
| N#Cc1cncn1CC(O)(C#CCC1CCCCC1)CC1CC1 (stereo not drawn) [I-593] | 3.33^[a] |
| N#Cc1cncn1CC(O)(c1ccc(F)c(F)c1)C1(F)CC1 (stereo not drawn) [I-445] | 2.17^[a] |
| CC(=O)c1cncn1CC(C)(O)c1ccc(Oc2ccc(C(F)(F)F)nc2)nc1C(F)(F)F (stereo not drawn) [I-291] | 2.27^[a] |
| Cn1ccc2cc(C(O)(Cn3cncc3C#N)CC(C)(C)C)ccc21 (stereo not drawn) [I-377] | 2.94^[a] |
| OC(Cn1cncc1Cl)c1ccc(Oc2ccc(Cl)cc2)cc1C(F)F (stereo not drawn) [I-71] | 2.45^[a] |
| N#Cc1cncn1CC(O)(CC1CC1)c1ccc(F)c(Br)c1 (stereo not drawn) [I-496] | 2.56^[a] |
| OC(Cn1cncc1Cl)c1ccc(Oc2ccc(Cl)cc2)cc1Cl (stereo not drawn) [I-01] | 2.64^[a] |
| CC(O)(Cn1cncc1F)c1cnc(Oc2ccc(C(F)(F)F)cc2)cc1Cl (stereo not drawn) [I-244] | 2.13^[a] |
| N#Cc1cncn1CC(O)(CC1CC1)c1cc(F)cc(F)c1 (stereo not drawn) [I-502] | 2.29^[a] |
| CN(C)C(=O)OC(Cn1cncc1C#N)c1ccc(Oc2ccc(Br)cc2)cc1C(F)(F)F (stereo not drawn) [I-92] | 3.85^[a] |
| N#Cc1cncn1CC(O)(CC1CC1)c1cc(F)c(F)c(Br)c1 (stereo not drawn) [I-494] | 2.74^[a] |
| CC(O)(Cn1cncc1C#N)c1cnc(Oc2ccc(Cl)cc2)cc1C(F)(F)F (stereo not drawn) [I-249] | 3.44^[a] |
| CC(C)C(O)(Cn1cncc1C#N)c1ccc(Cl)cc1Cl (stereo not drawn) [I-300] | 2.92^[a] |
| N#Cc1cncn1CC(O)c1cnc(Oc2ccc(Br)cc2)cc1C(F)F (stereo not drawn) [I-134] | 2.43^[a] |
| COC(Cn1cncc1F)c1ccc(Oc2ccc(Cl)cc2)cc1C(F)(F)F (stereo not drawn) [I-108] | 3.16^[a] |
| COC(Cn1cncc1C#N)c1ccc(Oc2ccc(Cl)cc2)cc1C(F)(F)F (stereo not drawn) [I-81] | 4.15^[a] |
| C[Si](C)(C)CC(O)(Cn1cncc1C#N)c1ccccc1Cl (stereo not drawn) [I-306] | 3.39^[a] |
| N#Cc1cncn1CC(O)(c1ccc(F)cc1Br)C1CCC1 (stereo not drawn) [I-449] | 2.86^[a] |
| N#Cc1cncn1CC(O)c1ccccc1Cl (stereo not drawn) [I-138] | 1.57^[a] |
| N#Cc1cncn1CC(O)(c1c(F)cccc1F)C1(F)CC1 (stereo not drawn) [I-520] | 1.94^[a] |

| Structure (SMILES) | LogP |
| --- | --- |
| N#Cc1cncn1CC(O)(c1ccc(Br)cc1F)C1(F)CC1 (stereo not drawn) [I-403] | 2.43^[a] |
| N#Cc1cncn1CC(O)(c1ccc(F)cc1Br)C1(F)CC1 (stereo not drawn) [I-357] | 2.31^[a] |
| N#Cc1cncn1CC(O)(CC1CC1)c1cc(F)ccc1F (stereo not drawn) [I-515] | 2.18^[a] |
| N#Cc1cncn1CC(O)(c1ccc(F)cc1C(F)(F)F)C1CC1 (stereo not drawn) [I-467] | 2.47^[a] |
| CC(O)(Cn1cncc1C#N)c1ccc(Oc2ccc(I)cc2)cc1Br (stereo not drawn) [I-217] | 3.81^[a] |
| CCCC(C)C(O)(Cn1cncc1C#N)c1ccc(Cl)cc1 (single isomer, unassigned) [I-327] | 3.08^[a] |
| N#Cc1cncn1CC(O)(C#Cc1cc(F)cc(F)c1)C1(Cl)CC1 (stereo not drawn) [I-319] | 2.59^[a] |
| N#Cc1cncn1CC(O)(c1cc(Cl)c(Cl)c(Cl)c1)C1(F)CC1 (stereo not drawn) [I-534] | 3.03^[a] |
| CC(C)(C)CC(O)(Cn1cncc1C#N)C1(F)CC1 (stereo not drawn) [I-374] | 2.44^[a] |
| CC(O)(Cn1cncc1Br)c1ccc(Oc2ccc(C(F)(F)F)cc2)cc1C(F)(F)F (stereo not drawn) [I-199] | 2.98^[a] |
| N#Cc1cncn1CC(O)(C#Cc1ccccc1)C1(F)CC1 (stereo not drawn) [I-371] | 2.20^[a] |
| N#Cc1cncn1CC(O)(c1ccc(F)c(Br)c1)C1(F)CC1 (stereo not drawn) [I-470] | 2.40^[a] |
| CC1(C(O)(Cn2cncc2C#N)c2ccc(F)cc2F)CC1 (stereo not drawn) [I-440] | 2.37^[a] |
| CC(C)(C)CC(O)(Cn1cncc1C#N)c1ccc(F)cc1 (stereo not drawn) [I-226] | 2.90^[a] |
| OC(Cn1cncc1C(F)(F)F)c1ccc(Oc2ccc(Cl)cc2)cc1Cl (stereo not drawn) [I-39] | 3.80^[a] |
| N#Cc1cncn1CC(O)(c1cccc(Cl)c1F)C1(F)CC1 (stereo not drawn) [I-558] | 2.21^[a] |
| N#Cc1cncn1CC(O)(C#CCC1CCCCC1)C1(F)CC1 (stereo not drawn) [I-539] | 3.11^[a] |
| N#Cc1cncn1CC(O)(c1cc(F)cc(F)c1F)C1(F)CC1 (stereo not drawn) [I-588] | 2.18^[a] |
| N#Cc1cncn1CC(O)(c1cc(F)c(Cl)c(F)c1)C1(F)CC1 (stereo not drawn) [I-475] | 2.54^[a] |
| N#Cc1cncn1CC(O)(C#CCC1CCCCC1)C1CCC1 (stereo not drawn) [I-592] | 3.51^[a] |
| CC(O)(Cn1cncc1C#N)c1cnc(Oc2ccc(C(F)F)cc2)cc1C(F)(F)F (stereo not drawn) [I-234] | 2.94^[a] |

| Structure (SMILES) | LogP |
| --- | --- |
| CC(C)(C)C(O)(Cn1cncc1C#N)c1cc(Cl)cc(Cl)c1 (stereo not drawn) [I-463] | 3.22^[a] |
| CC(=O)OC(Cn1cncc1F)c1ccc(Oc2ccc(Cl)cc2)cc1C(F)(F)F (stereo not drawn) [I-104] | 3.18^[a] |
| N#Cc1cncn1CC(O)(c1cc(Br)ccc1F)C1(F)CC1 (stereo not drawn) [I-631] | 2.31^[a] |
| CCCC#Cc1ccc(C(O)(Cn2cncc2C#N)C2(F)CC2)c(Cl)c1 (stereo not drawn) [I-641] | 3.52^[a] |
| N#Cc1cncn1CC(O)c1ccc(Oc2ccc(Cl)nc2)nc1C(F)(F)F (stereo not drawn) [I-151] | 2.37^[a] |
| CC(C)(C)C#Cc1ccc(C(O)(Cn2cncc2C#N)C2(F)CC2)c(F)c1 (stereo not drawn) [I-646] | 3.57^[a] |
| CC(O)(Cn1cncc1Cl)c1ccc(Oc2ccc(Cl)cc2)cc1Cl (stereo not drawn) [I-167] | 2.86^[a] |
| CC(C)(C)C(O)(Cn1cncc1C#N)c1ccc(Cl)cc1F (stereo not drawn) [I-342] | 3.00^[a] |
| CC(O)(Cn1cncc1F)c1cnc(Oc2ccc(OC(F)(F)F)cc2)cc1C(F)(F)F (stereo not drawn) [I-241] | 2.51^[a] |
| CCOC(Cn1cncc1F)c1ccc(Oc2ccc(Cl)cc2)cc1C(F)(F)F (stereo not drawn) [I-107] | 3.54^[a] |
| N#Cc1cncn1CC(O)c1ccc(Oc2ccc(C(F)(F)F)cc2)cc1C(F)(F)F (stereo not drawn) [I-53] | 3.52^[a] |
| N#Cc1cncn1CC(O)c1ccc(Oc2ccc(Cl)cn2)cc1Cl (stereo not drawn) [I-69] | 2.54 ^[a] |
| CC(C)C(O)(Cn1cncc1C#N)c1ccccc1C(F)(F)F (stereo not drawn) [I-345] | 2.46^[a] |
| CC(O)(Cn1cncc1Br)c1ccc(Oc2ccc(Cl)cc2)cc1Br (stereo not drawn) [I-170] | 2.80^[a] |
| CCOC(Cn1cncc1Br)c1ccc(Oc2ccc(Br)cc2)cc1Br (stereo not drawn) [I-57] | 4.16^[a] |
| N#Cc1cncn1CC(O)(C#Cc1ccc(Cl)cc1)C1(Cl)CC1 (stereo not drawn) [I-322] | 2.96^[a] |
| C[Si](C)(C)CC(O)(Cn1cncc1C#N)c1ccccc1Br (stereo not drawn) [I-307] | 3.50^[a] |
| CC(C)(C)C(O)(Cn1cncc1C#N)c1cc(F)cc(F)c1 (stereo not drawn) [I-457] | 2.64^[a] |
| N#Cc1cncn1CC(O)(c1ccc(Br)cc1Br)C1(F)CC1 (stereo not drawn) [I-433] | 2.71^[a] |
| CCCC(O)(Cn1cncc1C#N)c1ccc(F)cc1Cl (stereo not drawn) [I-402] | 2.73^[a] |
| OC(Cn1cncc1Br)c1ccc(Oc2ccc(Cl)cc2)cc1C(F)(F)F (stereo not drawn) [I-29] | 2.84^[a] |

| Structure (SMILES) | LogP |
| --- | --- |
| N#Cc1cncn1CC(O)(c1cc(Cl)c(F)cc1Cl)C1(F)CC1 (stereo not drawn) [I-575] | 2.54^[a] |
| N#Cc1cncn1CC(O)(C#CC1CCCC1)C1(F)CC1 (stereo not drawn) [I-453] | 2.30^[a] |
| N#Cc1cncn1CC(O)(c1ccc(Cl)c(F)c1)C1(F)CC1 (stereo not drawn) [I-446] | 2.44^[a] |
| CC(C)(C)C(O)(Cn1cncc1C#N)c1cc(F)c(F)c(Cl)c1 (stereo not drawn) [I-544] | 3.07^[a] |
| CCCCC(O)(Cn1cncc1C#N)c1ccccc1F (stereo not drawn) [I-287] | 2.51^[a] |
| OC(Cn1cncc1F)c1ccc(Oc2ccc(C(F)F)cc2)nc1Cl (stereo not drawn) [I-102] | 1.80^[a] |
| N#Cc1cncn1CC(O)(c1ccc(Br)c(Cl)c1Cl)C1(F)CC1 (stereo not drawn) [I-681] | 2.80^[a] |
| COC(Cn1cncc1Br)c1ccc(Oc2ccc(Br)cc2)cc1Br (stereo not drawn) [I-51] | 3.72^[a] |
| N#Cc1cncn1CC(O)(c1cc(F)cc(Cl)c1Cl)C1(F)CC1 (stereo not drawn) [I-568] | 2.49^[a] |
| N#Cc1cncn1CC(O)(c1ccc(Cl)c(F)c1Cl)C1(Cl)CC1 (stereo not drawn) [I-617] | 2.64^[a] |
| OC(Cn1cncc1Cl)c1ccc(Oc2ccc(Br)cc2)cc1Cl (stereo not drawn) [I-11] | 2.75^[a] |
| CCCC#Cc1ccc(C(O)(Cn2cncc2C#N)C2(Cl)CC2)c(Cl)c1 (stereo not drawn) [I-655] | 3.65^[a] |
| CC(O)(Cn1cncc1C#N)c1ccc(Oc2ccc(Cl)cc2F)nc1C(F)(F)F (stereo not drawn) [I-279] | 3.14^[a] |
| N#Cc1cncn1CC(O)(c1ccc(F)cc1Br)C1CC1 (stereo not drawn) [I-398] | 2.46^[a] |
| CC(O)(Cn1cncc1C#N)c1cnc(Oc2ccc(Cl)cc2F)cc1C(F)(F)F (stereo not drawn) [I-233] | 3.29^[a] |
| CCCC(O)(Cn1cncc1C#N)c1ccc(F)cc1 (stereo not drawn) [I-378] | 2.21^[a] |
| N#Cc1cncn1CC(O)(c1ccc(F)cc1Br)C1CCCCC1 (stereo not drawn) [I-479] | 3.46^[a] |
| N#Cc1cncn1CC(O)(c1ccc(C(F)(F)F)cc1Cl)C1(F)CC1 (stereo not drawn) [I-383] | 2.75^[a] |
| CC(=O)c1cncn1CC(C)(O)c1ccc(Oc2ccc(C(F)(F)F)cc2)cc1C(F)(F)F (stereo not drawn) [I-207] | 3.27^[a] |
| Cc1ccc(C(O)(Cn2cncc2C#N)C2(Cl)CC2)cc1C1(C(F)(F)F)CC1 (stereo not drawn) [I-212] | 3.27^[a] |

Same assay, conditions: reversed phase HPLC column; method [a], HPLC on reversed phase columns

| Structure (SMILES) | chromatographic logP |
| --- | --- |
| N#Cc1cncn1CC(O)(CCC1CCCCC1)C1(Cl)CC1 (stereo not drawn) [I-660, 1-[2-(1-chlorocyclopropyl)-4-cyclohexyl-2-hydroxybutyl]-1H-imidazole-5-carbonitrile] | 3.79 |

Same assay, conditions: reversed phase HPLC column; method [a]: LC-UV, acidic range, 0.1% formic acid in water and acetonitrile as eluent (linear gradient from 10% to 95% acetonitrile)

| Structure (SMILES) | chromatographic logP |
| --- | --- |
| CC(=O)c1cncn1CC(=O)c1ccc(Oc2ccc(Cl)cc2)nc1C(F)(F)F [IX-119] | 3.13 |
| N#Cc1cncn1CC(=O)c1ccccc1 [IX-101] | 1.55 |
| O=C(Cn1cncc1Br)c1ccc(Oc2ccc(I)cc2)cc1F [IX-48] | 3.19 |
